Consider four molecules from patent publication US8299089B2, “Multi-arm polymeric conjugates of 7-ethyl-10-hydroxycamptothecin for treatment of breast, colorectal, pancreatic, ovarian and lung cancers” (priority 2006, dated 2012).

In one data set the test system is Colo 205. The data set is described as follows: In vitro cytotoxicity, MTS assay, Colo 205. It counts as cell-based. The protocol:
(§1) In Table 2, the cytotoxicity (μM of each compound that results in an IC50) provides an indication of the in vitro anti-tumor potency of each compound. This study was used to determine the effect of PEGylation of four-arm PEGylated 7-ethyl-10-hydroxycamptothecin conjugates. […] Cells were incubated with drugs for 72 hours at 37° C. Following incubation, MTS dye was added and formation of a colored product (formazan) was measured at 490 nm.
A general note: Tetrazolium assays rely on reduction of a dye to a coloured formazan, in cell work by metabolically active cells.

Another data set concerns HT29. The data set is described as follows: In vitro cytotoxicity, MTS assay, HT29. The format is cell-based. The protocol:
as §1

The test system of a further data set is A549. The data set is described as follows: In vitro cytotoxicity, MTS assay, A549. It counts as cell-based. The protocol: as §1
Another data set deals with PANC-1. Description: In vitro cytotoxicity, MTS assay, PANC-1. It counts as cell-based. Particulars: Table 2; PANC-1, 72 hours; Compound 9 in 7-ethyl-10-hydroxycamptothecin equivalents; average ± SD (n = 3). The protocol: as §1
For the next data set, the system named is MIA PaCa-2. Description: In vitro cytotoxicity, MTS assay, MIA PaCa-2. The format is cell-based. Particulars: Table 2; MIA PaCa-2, 72 hours; Compound 9 in 7-ethyl-10-hydroxycamptothecin equivalents; no SD = average of two replicates. The protocol: as §1
For the next data set, the system named is ASPC-1. Description: In vitro cytotoxicity, MTS assay, ASPC-1. It counts as cell-based. The note with it: Table 2; ASPC-1, 72 hours; Compound 9 in 7-ethyl-10-hydroxycamptothecin equivalents; average ± SD (n = 3). As for the experimental part: as §1
Another data set relates to BxPC-3. The data set is described as follows: In vitro cytotoxicity, MTS assay, BxPC-3. It counts as cell-based. The note with it: Table 2; BxPC-3, 72 hours; Compound 9 in 7-ethyl-10-hydroxycamptothecin equivalents; average ± SD (n = 3). The protocol: as §1
The next data set has as its system OVCAR-3. Description: In vitro cytotoxicity, MTS assay, OVCAR-3. It counts as cell-based. The protocol:
as §1

The test system of the next data set is OV90. Description: In vitro cytotoxicity, MTS assay, OV90. It counts as cell-based. Particulars: Table 2; OV90, 72 hours; Compound 9 in 7-ethyl-10-hydroxycamptothecin equivalents; average ± SD (n = 3). The protocol: as §1
A further data set relates to OVCAR-8. Description: In vitro cytotoxicity, MTS assay, OVCAR-8. The format is cell-based. The note with it: Table 2; OVCAR-8, 72 hours; Compound 9 in 7-ethyl-10-hydroxycamptothecin equivalents; average ± SD (n = 3). As for the experimental part: as §1
A further data set deals with A2780. Description: In vitro cytotoxicity, MTS assay, A2780. It counts as cell-based. The note with it: Table 2; A2780, 72 hours; Compound 9 in 7-ethyl-10-hydroxycamptothecin equivalents; average ± SD (n = 3). As for the experimental part:
as §1

In a further data set the test system is SK-0V-3. The data set is described as follows: In vitro cytotoxicity, MTS assay, SK-0V-3. The format is cell-based. The note with it: Table 2; SK-0V-3, 72 hours; Compound 9 in 7-ethyl-10-hydroxycamptothecin equivalents; average ± SD (n = 3). As for the experimental part:
as §1

Data set [1] is described as follows: Solubility in aqueous saline solution. The format is physicochemical.
Data set [2] relates to human mammary carcinoma (MX-1). The data set is described as follows: Multiple dose efficacy in MX-1 breast tumor xenograft mouse model. It counts as in vivo, nude mice. Particulars: i.v. 5 mg/kg/dose (q2d×6), day 31. As for the experimental part: The mice were dosed 5 mg/kg/day […] (every 2 days [q×2d]×6). Mouse weight and tumor sizes were monitored up to the 31st day after the first dose administration and subsequent administrations.

Data set [3] can be described thus: Hydrolysis / 7-ethyl-10-hydroxycamptothecin release in human plasma. The format is in vitro ADME. Particulars: for Doubling Time in Plasma, Human: 7-ethyl-10-hydroxycamptothecin formation rate from conjugates; for t1/2 in Human Plasma: PEG conjugate half life.
From the text: The aqueous stability and hydrolysis properties in rat and human plasma were monitored using UV based HPLC methods.
Data set [4] in a line: 7-ethyl-10-hydroxycamptothecin release in mouse plasma. The format is in vitro ADME. Particulars: 7-ethyl-10-hydroxycamptothecin formation rate from conjugates.
The nature of data set [5]: 7-ethyl-10-hydroxycamptothecin release in rat plasma. It counts as in vitro ADME. Particulars: 7-ethyl-10-hydroxycamptothecin formation rate from conjugates.

For orientation: IC50 means the midpoint of a concentration-inhibition curve. As usually defined, the T/C is the ratio of treated to control. A word on the TGI: it is how far tumour growth fell short of that in controls.

As to `CCc1c2c(nc3ccc(O)cc13)-c1cc3c(c(=O)n1C2)COC(=O)[C@]3(O)CC` [7-ethyl-10-hydroxycamptothecin], the IC50 stood at 0.2 ± 0.2 µM in the data set on Colo 205 (Table 2, Colo 205, 72 hours, Compound 9 in 7-ethyl-10-hydroxycamptothecin equivalents, average ± SD (n = 3)); 0.08 µM in the data set on Colo 205 (Table 3, Colo 205 (colorectal)); 0.1 ± 0.04 µM in the data set with HT29 (Table 2, HT29, 72 hours, Compound 9 in 7-ethyl-10-hydroxycamptothecin equivalents, average ± SD (n = 3)); 0.08 µM in the data set on HT29 (Table 3, HT29 (colorectal)); 1 ± 0.1 µM in the data set with A549 (Table 2, A549, 72 hours, Compound 9 in 7-ethyl-10-hydroxycamptothecin equivalents, average ± SD (n = 3)); 0.56 ± 0.38 µM in the data set with PANC-1. Further, the IC50 worked out at 0.18 µM in the data set on MIA PaCa-2; 0.64 ± 0.13 µM in the data set on ASPC-1; 0.54 ± 0.58 µM in the data set with BxPC-3; 0.1 ± 0.02 µM with OVCAR-3 (Table 2, OVCAR-3, 72 hours, Compound 9 in 7-ethyl-10-hydroxycamptothecin equivalents, average ± SD (n = 3)); 0.1 ± 0.02 µM in the data set on OV90; 0.03 ± 0.01 µM with OVCAR-8. The results for the IC50 in the data set on A2780 and with SK-0V-3 were 0.02 ± 0.01 µM and 0.2 ± 0.1 µM, respectively. Besides, in [1], the “Solubility in Saline” value is listed as “^a7-ethyl-10-hydroxycamptothecin is not soluble in saline”.
Regarding “^40K4arm-PEG-Sar-(20)-(7-ethyl-10-hydroxycamptothecin) [Compound 23]”, half-maximal inhibition in the data set on Colo 205 (Table 3, Colo 205 (colorectal)) (IC50) required 0.04 µM. The molecule also yielded an IC50 with HT29 (Table 3, HT29 (colorectal)) of 0.27 µM. In the data set with A549 (Table 3, A549 (lung)), 11 µM corresponded to half-maximal inhibition (IC50). In the data set on OVCAR-3 (Table 3, OVCAR-3 (ovarian)), this molecule came in with an IC50 of 0.17 µM. Moreover, in [2], the “Chg in TV ± SD” value is reported as −87 ± 12%, the Cures is given as 100%, the F/I stood at 13% and the “Mean TV ± SD” value amounted to 12 ± 10 mm^3. Also, in data set [2], the “Median TV” value worked out at 14.6 mm^3, the Regressions came out at 100%, the Survival worked out at 100% and the T/C came to 1.9%. In data set [2], this molecule returned a TGI of 99%. Also, in data set [3], the “Doubling Time in Plasma, Human” value worked out at 28.8 min and the “t1/2 in Human Plasma” value is reported as 19.0 min. In [4], the “Doubling Time in Plasma, Mouse” value came to 43.4 min. For the same molecule, the “Doubling Time in Plasma, Rat” value in [5] is listed as 481 min.
Molecule “^40k4arm-PEG-Ala-(20)-(7-ethyl-10-hydroxycamptothecin) [Compound 12]” gave an IC50 in the data set with Colo 205 (Table 3, Colo 205 (colorectal)) of 0.03 µM. Half-maximal inhibition in the data set with HT29 (Table 3, HT29 (colorectal)) (IC50) was put at 0.16 µM. Besides, the IC50 with A549 (Table 3, A549 (lung)) stood at 4.4 µM. In the data set with OVCAR-3 (Table 3, OVCAR-3 (ovarian)), this molecule displayed an IC50 of 0.14 µM. Further, in [2], the “Chg in TV ± SD” value is −91 ± 11%, the Cures stood at 67%, the F/I is on record as 10% and the “Mean TV ± SD” value turned out to be 10 ± 11 mm^3. In data set [2], the “Median TV” value stood at 9.6 mm^3, the Regressions was 100%, the Survival was 100% and the T/C is reported as 1.2%. For the same molecule, the TGI in [2] came to 99%. In addition, the “Solubility in Saline” value in data set [1] is listed as 121 mg/mL. For the same molecule, in [3], the “Doubling Time in Plasma, Human” value is reported as 51.9 min and the “t1/2 in Human Plasma” value is listed as 12.5 min. Further, the “Doubling Time in Plasma, Mouse” value in data set [4] came out at 45.8 min. For the same molecule, the “Doubling Time in Plasma, Rat” value in data set [5] amounted to 753 min.
For the molecule “^40k4arm-PEG-Met-(20)-(7-ethyl-10-hydroxycamptothecin) [Compound 18]”, the concentration for half-maximal inhibition (IC50) in the data set with Colo 205 (Table 3, Colo 205 (colorectal)) was found to be 0.03 µM. This molecule gave an IC50 in the data set with HT29 (Table 3, HT29 (colorectal)) of 0.14 µM. Besides, in the data set on A549 (Table 3, A549 (lung)), half-maximal inhibition (IC50) was put at 1.6 µM. The same molecule registered a 50% inhibitory concentration (IC50) in the data set on OVCAR-3 (Table 3, OVCAR-3 (ovarian)) of 0.13 µM. Further, in data set [2], the “Chg in TV ± SD” value was −94 ± 7%, the Cures came to 100%, the F/I worked out at 7.8% and the “Mean TV ± SD” value was 8 ± 9 mm^3. In addition, in data set [2], the “Median TV” value stood at 5.6 mm^3, the Regressions amounted to 100%, the Survival is recorded as 100% and the T/C turned out to be 0.7%. In data set [2], the TGI stood at 99%. For the same molecule, in data set [1], the “Solubility in Saline” value is listed as 142 mg/mL. Moreover, in data set [3], the “Doubling Time in Plasma, Human” value was found to be 22.2 min and the “t1/2 in Human Plasma” value is 26.8 min. Moreover, the “Doubling Time in Plasma, Mouse” value in data set [4] was found to be 41.9 min. Moreover, the “Doubling Time in Plasma, Rat” value in [5] amounted to 1920 min.
